Read-outs that look alike come from different tables or passages of the source.
Molecular target: T1, Human Polymorphonuclear Leukocyte Elastase (Homo sapiens, UniProt P08246)
T1 construct: Crude extract of human polymorphonuclear leukocytes (PMN) containing elastase activity; from tissue; host or cells: human polymorphonuclear leukocytes (crude extract)
T1 sequence (P08246 30-267): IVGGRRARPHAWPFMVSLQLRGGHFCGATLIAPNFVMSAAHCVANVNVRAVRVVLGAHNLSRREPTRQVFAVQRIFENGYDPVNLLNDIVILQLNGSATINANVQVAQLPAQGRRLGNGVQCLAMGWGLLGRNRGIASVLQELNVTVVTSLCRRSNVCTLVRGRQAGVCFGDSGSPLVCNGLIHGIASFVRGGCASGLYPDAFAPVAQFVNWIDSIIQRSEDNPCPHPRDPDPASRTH
Assay: Inhibition of human polymorphonuclear leukocyte elastase via hydrolysis of Boc-AAPAN or Boc-AAPVN
Type: biochemical
Settings: pH 7.5, Formula A, M n-propyl, read-out: kobs /[I]
Experimental: Enzyme Assays for the Inhibition of Human Polymorphonuclear Leukocyte
Elastase Via Hydrolysis of
N-t-Boc-alanyl-alanyl-prolylalanine-p-nitroanilide (Boc-AAPAN) or
N-t-Boc-alanyl-prolylvaline-p-nitroanilide (Boc-AAPVN) Reagent:
0.05M TES (N-tris[hydroxymethyl]methyl-2-amino-ethanesulfonic acid) Buffer, pH 7.5.
0.2 mM Boc-AAPAN or Boc-AAPVN.
To prepare substrate, the solid was first dissolved in 10.0 ml DMSO. Buffer at pH 7.5 was then added to a final volume of 100 ml.
Crude extract of human polymorphonuclear leukocytes (PMN) containing elastase activity.
Inhibitors (azetidinones) to be tested dissolved in DMSO just before use.
To 1.0 ml of 0.2 mM Boc-AAPAN in a cuvette, 0.01-0.1 ml of DMSO with or without inhibitor was added. After mixing, a measurement was taken at 410 mμ to detect any spontaneous hydrolysis due to presence of test compound. 0.05 Milliliters of PMN extract was then added and the ΔOD/min at 410 mμ was measured and recorded. Beckman model 35 spectrophotometer was used.
Results in Table I were reported as ID50, effective dosage in micrograms per milliliter (μg/ml) for 50% inhibition of the enzyme activity 2 minutes after zero time.
Results were also expressed as Ki, the micromolar concentration of the inhibitor (μM) giving 50% of the control enzyme activity; or as ^k obs/I which is the second order rate constant in per mole per second for inactivation of the enzyme.
The elastase activity in the crude PMN extract may vary from one preparation to another. A control of each new batch is run, and the volume added in the assay procedure is adjusted according to activity.

[1] = second order rate constant for inactivation, R2 4-methyl (TABLE 1)
[2] = second order rate constant, R4 piperazine amide with substituent Z
[3] = second order rate constant, R2 3,4-methylenedioxy

SMILES | kinact/KI [1] | also measured
CCC[C@@H](NC(=O)N1C(=O)C(CC)(CC)[C@@H]1OCC(=O)N(CC)CCN(CCOCC)C(C)C)c1ccc(C)cc1 | 195000 M⁻¹ s⁻¹ | –
CCC[C@@H](NC(=O)N1C(=O)C(CC)(CC)[C@@H]1OCC(=O)N1CCOCC1)c1ccc(C)cc1 | 400000 M⁻¹ s⁻¹ | –
CCC[C@@H](NC(=O)N1C(=O)C(CC)(CC)[C@@H]1OCC(=O)N1CCN(C2CC2)CC1)c1ccc2c(c1)OCO2 [2-(S)-[2-[2-(4-Cyclopropyl)piperazin-1-yl]-2-oxoethoxy]-3,3-diethyl-N-[1-(R)-(3,4-methylenedioxyphenyl)-butyl]-4-oxo-1-azetidinecarboxamide] | – | kinact/KI [2]: 560000 M⁻¹ s⁻¹
CCC[C@@H](NC(=O)N1C(=O)C(CC)(CC)[C@@H]1OCC(=O)N(C)CCN1C(C)CCCC1C)c1ccc(C)cc1 (stereo partly drawn) [2-(S)-[2-[[2-(2,6-dimethylpiperidin-1-yl)ethyl]-methylamino]-2-oxoethoxy]-3,3-diethyl-N-[1-(R)-(4-methylphenyl)butyl] -4-oxo-1-azetidinecarboxamide] | 80000 M⁻¹ s⁻¹ | –
CCC[C@@H](NC(=O)N1C(=O)C(CC)(CC)[C@@H]1OCC(=O)N(CC)CCN(C)CCOC)c1ccc2c(c1)OCO2 [2-(S)-[2-[[2-(2-Methoxyethyl)methylamino)ethy]ethylamino]-2-oxoethoxy]-3,3-diethyl-N-[1-(R)-(3,4-methylenedioxyphenyl)butyl]-4-oxo-1-azetidine carboxamide] | – | kinact/KI [3]: 450000 M⁻¹ s⁻¹
CCC[C@@H](NC(=O)N1C(=O)C(CC)(CC)[C@@H]1OCC(=O)N(C)CCN(CCOCC)C(C)C)c1ccc(C)cc1 [2-(S)-[2-[[2-((2-Ethoxyethyl)-isopropylamino)ethyl]methylamino]-2-oxoethoxy]-3,3-diethyl-N-[1-(R)-(4-methylphenyl)butyl]-4-oxo-1-azetidinecarboxamide] | 140000 M⁻¹ s⁻¹ | –
CCC[C@@H](NC(=O)N1C(=O)C(CC)(CC)[C@@H]1OCC(=O)N(CCC)CCN(CCOCC)C(C)C)c1ccc(C)cc1 [2-(S)-[2-[[2-((2-Ethoxyethyl)-isopropylamino)ethyl]propylamino]-2-oxoethoxy]-3,3-diethyl-N-[1-(R)-(4-methylphenyl)butyl]-4-oxo-1-azetidinecarboxamide] | 185000 M⁻¹ s⁻¹ | –
CCC[C@@H](NC(=O)N1C(=O)C(CC)(CC)[C@@H]1OCC(=O)N(CCN(CC)CCOC)C(C)C)c1ccc(C)cc1 [2-(S)-[2-[[2-((2-Methoxyethyl)-ethylamino)ethyl]-isopropylamino]-2-oxoethoxy]-3,3-diethyl-N-[1-(R)-(4-methylphenyl)butyl]-4-oxo-1-azetidinecarboxamide] | 250000 M⁻¹ s⁻¹ | –
CCC[C@@H](NC(=O)N1C(=O)C(CC)(CC)[C@@H]1OCC(=O)N(CC)CCN(CC)CCOC)c1ccc(C)cc1 [2-(S)-[2-[[2-((2-Methoxyethyl)-ethylamino)ethyl]ethylamino]-2-oxoethoxy]-3,3-diethyl-N-[1-(R)-(4-methylphenyl)butyl]-4-oxo-1-azetidinecarboxamide] | 185000 M⁻¹ s⁻¹ | –
CCC[C@@H](NC(=O)N1C(=O)C(CC)(CC)[C@@H]1OCC(=O)N(C)CCN(CC)CCOC)c1ccc(C)cc1 [2-(S)-[2-[[2-((2-Methoxyethyl)-ethylamino)ethyl]methylamino]-2-oxoethoxy]-3,3-diethyl-N-[1-(R)-(4-methylphenyl)butyl]-4-oxo-1-azetidinecarboxamide] | 110000 M⁻¹ s⁻¹ | –
CCC[C@@H](NC(=O)N1C(=O)C(CC)(CC)[C@@H]1OCC(=O)N(C)CCN(CCOC)CCOC)c1ccc(C)cc1 [2-(S)-[2-[[2-(Di-(2-methoxyethyl)amino)ethyl]methylamino]-2-oxoethoxy]-3,3-diethyl-N-[1-(R)-(4-methylphenyl)butyl]-4-oxo-1-azetidinecarboxamide] | 165000 M⁻¹ s⁻¹ | –
CCC[C@@H](NC(=O)N1C(=O)C(CC)(CC)[C@@H]1OCC(=O)N(CC)CCN(C)C)c1ccc2c(c1)OCO2 [2-(S)-[2-[[2-(Dimethylamino)ethy]-ethylamino]-2-oxoethoxy]-3,3-diethyl-N-[1-(R)-(3,4-methylenedioxyphenyl)butyl]-4-oxo-1-azetidinecarboxamide] | – | kinact/KI [3]: 425000 M⁻¹ s⁻¹
CCC[C@@H](NC(=O)N1C(=O)C(CC)(CC)[C@@H]1OCC(=O)N(CCN(C)C)C(C)C)c1ccc2c(c1)OCO2 [2-(S)-[2-[[2-(Dimethylamino)ethyl]-isopropylamino]-2-oxoethoxyl]-3,-3-diethyl-N-[1-(R)-(3,4-methylenedioxyphenyl)-butyl]-4-oxo-1-azetidinecarboxamide] | – | kinact/KI [3]: 500000 M⁻¹ s⁻¹
CCC[C@@H](NC(=O)N1C(=O)C(CC)(CC)[C@@H]1OCC(=O)N(CC)CCN1CCOCC1)c1ccc(C)cc1 [2-(S)-[2-[[2-(Morpholin-1-yl)ethyl]ethylamino]-2oxoethoxy]-3,3-diethyl-N-[1-(R)-(4-methylphenyl)butyl]-4-oxo-1-azetidinecarboxamide] | 245000 M⁻¹ s⁻¹ | –
CCC[C@@H](NC(=O)N1C(=O)C(CC)(CC)[C@@H]1OCC(=O)N1CCN(C)CC1)c1ccc2c(c1)OCO2 [R2=3,4-methylenedioxy-; R5=H; Z=--Me, 2-(S)-[2-[2-(4-Methyl)piperazin-1-yl]-2-oxoethoxy]-3,-3-diethyl-N-[1-(R)-(3,4-methylenedioxyphenyl)-butyl]-4-oxo-1-azetidinecarboxamide] | – | kinact/KI [2]: 530000 M⁻¹ s⁻¹
CCC[C@@H](NC(=O)N1C(=O)C(CC)(CC)[C@@H]1OCC(=O)N1CCNCC1)c1ccc2c(c1)OCO2 [R2=3,4-methylenedioxy-; R5=H; Z=H] | – | kinact/KI [2]: 515000 M⁻¹ s⁻¹
CCC[C@@H](NC(=O)N1C(=O)C(CC)(CC)[C@@H]1OCC(=O)N1CCN(CCO)CC1)c1ccc(C)cc1 [R2=4-Me; R5=H; Z=CH2 CH2 OH, 2-(S)-[2-[2-(4-(2-Hydroxy)ethyl)piperazin-1-yl]-2-oxoethoxy]-3,-3-diethyl-N[1-(R)-(4-methylphenyl)-butyl]-4-oxo-1-azetidinecarboxamide] | – | kinact/KI [2]: 300000 M⁻¹ s⁻¹
CCC[C@@H](NC(=O)N1C(=O)C(CC)(CC)[C@@H]1OCC(=O)N1CCNCC1)c1ccc(C)cc1 [R2=4-Me; R5=H; Z=H] | – | kinact/KI [2]: 250000 M⁻¹ s⁻¹
CCC[C@@H](NC(=O)N1C(=O)C(CC)(CC)[C@@H]1OCC(=O)N1CCN(C2CC2)CC1)c1ccc(C)cc1 [R2=4-Me; R5=H; Z=cyclopropyl, 2-(S)-[2-[2-(4-Cyclopropyl)piperazin-1-yl]-2-oxoethoxy]-3,-3-diethyl-N-[1-(R)-(4-methylphenyl)-butyl]-4-oxo-1-azetidinecarboxamide] | – | kinact/KI [2]: 225000 M⁻¹ s⁻¹

Continued, in another order:

kinact/KI [1] | SMILES | also measured
177000 M⁻¹ s⁻¹ | CCC[C@@H](NC(=O)N1C(=O)C(CC)(CC)[C@@H]1OCC(=O)N(CC)CCN(CC)CC)c1ccc(C)cc1 [Y=N(Et)CH2 CH2; R5=H; R7=Et; R8=Et, 2-(S)-[2-[[2-(Diethylamino)ethyl]ethylamino]-2-oxoethoxy]-3,3-di ethyl-N-[1-(R)-(4-methylphenyl)butyl]-4-oxo-1-azetidinecarboxamide] | –
189000 M⁻¹ s⁻¹ | CCC[C@@H](NC(=O)N1C(=O)C(CC)(CC)[C@@H]1OCC(=O)N(CC)CCN(C(C)C)C(C)C)c1ccc(C)cc1 [Y=N(Et)CH2 CH2; R5=H; R7=iPr; R8=iPr, 2-(S)-[2-[[2-(Diisopropylamino)ethyl]ethylamino]-2-oxoethoxy]-3,3-diethyl-N-[1-(R)-(4-methylphenyl)butyl]-4-oxo-1-azetidinecarboxamide] | –
1.77e+06 M⁻¹ s⁻¹ | CCC[C@@H](NC(=O)N1C(=O)C(CC)(CC)[C@@H]1O[C@@H](C)C(=O)N(CC)CCN(C)C)c1ccc(C)cc1 [Y=N(Et)CH2 CH2; R5=Me; R7=Me; R8=Me, 2-(S)-[2-[[2-(Dimethylamino)ethyl]ethylamino]-2-oxo-(1-(S)-methyl)ethoxy]-3,3-diethyl-N-[1-(R)-(4-methylphenyl)butyl]-4-oxo-1-azetidinecarboxamide] | –
115000 M⁻¹ s⁻¹ | CCC[C@@H](NC(=O)N1C(=O)C(CC)(CC)[C@@H]1OCC(=O)N(C)CCCN(C)C)c1ccc(C)cc1 [Y=N(Me)CH2 CH2 CH2; R5=H; R7=Me; R8=Me, 2-(S)-[2-[[3-(Dimethylamino)propyl]methylamino]-2-oxoethoxy]-3,3-diethyl-N-[1-(R)-(4-methylphenyl)butyl]-4-oxo-1-azetidinecarboxamide] | –
150000 M⁻¹ s⁻¹ | CCC[C@@H](NC(=O)N1C(=O)C(CC)(CC)[C@@H]1OCC(=O)N(C)CCN(CC)CC)c1ccc(C)cc1 [Y=N(Me)CH2 CH2; R5=H; R7=Et; R8=Et, 2-(S)-[2-[[2-(Diethylamino)ethyl]methylamino]-2oxoethoxy]-3,3-diethyl-N-[1-(R)-(4-methylphenyl)butyl]-4-oxo-1-azetidinecarboxamide] | –
114000 M⁻¹ s⁻¹ | CCC[C@@H](NC(=O)N1C(=O)C(CC)(CC)[C@@H]1OCC(=O)N(C)CCN(C)C)c1ccc(C)cc1 [Y=N(Me)CH2 CH2; R5=H; R7=Me; R8=Me, 2-(S)-[2-[[2-(Dimethylamino)ethyl]methylamino]-2-oxoethoxy]-3,3-diethyl-N-[1-(R)-(4-methylphenyl)butyl]-4-oxo-1-azetidinecarboxamide] | –

From patent US5348953A, “Substituted azetidinones as anti-inflammatory and antidegenerative agents” (Merck & Co., Inc., priority 1992, dated 1994)
